From patent US6495570B2, “Combination drug therapy for glycolipid storage diseases” (G. D. Searle & Co., priority 1999, dated 2002)
“And” between values parts separate entries of the source, which are not always exact repeats. Identical values can stand only once.

What was measured:
[1] = Organ distribution of radiolabelled compound after oral gavage in the normal mouse; type: in vivo
Experimental: Mouse body fluids and organs were collected for different times (30, 60, 90 minutes) after gavage with radiolabelled compound. Radioactivity in each sample was determined and expressed as a percentage of radioactivity recovered. Solid bars, NN-DNJ, hatched bars, NB-DNJ.
Further evidence that longer alkyl chains are taken up-much better than the shorter alkyl chains has been obtained by in vivo studies with mouse.
Table 2. Recovery of radiolabelled compounds after administration in the normal mouse. Mouse body fluids and organs were collected at different times after gavage with radiolabelled compound. Radioactivity in each sample was determined and expressed as a percentage of radioactivity recovered (data from FIG. 5).

[2] = system: glycolipid biosynthesis in human myeloid (HL-60) cells; test: Inhibition of glycolipid biosynthesis in HL-60 cells (radiolabelled palmitic acid, TLC, scanning densitometry); type: cell-based; conditions: for IC50: Homo sapiens, range quoted for variability of the radiolabelled products, read-out: IC50, inhibition of glycolipids (glucosylceramide and lactosylceramide bands)
Experimental: (§1) Cells were cultured for four days in the presence of radiolabelled palmitic acid and the following concentrations of compound:
(§2) After extraction the radioactively labelled glycolipids were separated by TLC and visualized by radioautography. NB-DNJ is N-butyl-DNJ. NN-DNJ is N-nonyl-DNJ.
(§3) Chinese Hamster Ovary (CHO) cells and human myeloid (HL-60) cells grown in the presence of varying concentrations of inhibitor in addition to a precursor (radiolabelled palmitic acid) of glycolipid biosynthesis were treated with solvents to extract the glycolipids by the procedure described by Platt et al., J. Biol. Chem. 269, 8362-8365 (1994).
(§4) The radiolabelled lipids were separated by TLC (FIG. 1) and bands corresponding to glucosylceramide and lactosylceramide were quantitated by scanning densitometry to estimate the reduction in glycolipid biosynthesis.
(§5) Table 1. […] Radiolabelled glucosylceramide and lactosylceramide bands from FIG. 1 were quantitated by scanning densitometry and the percentage of control (no treatment, track a, FIG. 1) expressed in comparison to compound dose. From the linear curve, an IC50 value was obtained. A range of values is quoted to represent variability of the radiolabelled products.

[3] = mice, oral 4800 mg/Kg/day; cited from earlier work
[4] = system: human immunodeficiency virus (HIV); conditions: cited from earlier work
[5] = cited from earlier work
glycolipid biosynthesis = conditions: cited from earlier work
[6] = system: glycolipid biosynthesis in Chinese hamster ovary (CHO) cells; test: Inhibition of glycolipid biosynthesis in CHO cells (radiolabelled palmitic acid, TLC, scanning densitometry); type: cell-based; conditions: for IC50: Cricetulus griseus, range quoted for variability of the radiolabelled products, read-out: IC50, inhibition of glycolipids (glucosylceramide and lactosylceramide bands)
Experimental: as §1, §2, §3, §4, §5

Hepatitis B virus (HBV) = conditions: based on inhibition of alpha-glucosidases in the ER; cited from earlier work
[7] = system: CHO, MDBK and HepG2 cells; test: Uptake of radiolabelled compound into cultured cells (cell-associated radioactivity); type: in vitro ADME; conditions: incubated up to 24 hours
Experimental: FIG. 5 is a bar graph of estimated radioactivity. […] Cells were extensively washed and acid precipitated. After solution in NaOH, cell associated radioactivity was determined as a percentage of radiolabelled compound added.
The activity is explained by the differential uptake into cells.

Compound | % recovered, Brain ([1]; 30 min after gavage, mouse) | % recovered, Liver ([1]; 30 min after gavage, mouse) | % recovered, Brain ([1]; 60 min after gavage, mouse) | % recovered, Liver ([1]; 60 min after gavage, mouse) | % recovered, Brain ([1]; 90 min after gavage, mouse) | % recovered, Liver ([1]; 90 min after gavage, mouse) | IC50 ([2]; HL-60 cells) | dose required for activity against glycolipid biosynthesis (glycolipid biosynthesis) | IC50 [6] | also measured
CCCCN1C[C@H](O)[C@@H](O)[C@H](O)[C@H]1CO [N-butyl-DNJ, N-butyl-1,5-dideoxy-1,5-imino-D-glucitol] | 0.2% | 8.5% | 0.1% | 2.8% | 0.03% | 0.9% | 1800 to 7300 nM | 0.01 to 0.1 mg/mL | 25 to 50 µM | stable serum concentration [3]: 50 µM; effectiveness as an inhibitor of HIV versus the N-ethyl analog [4]: three log orders more effective; effectiveness as an inhibitor of HIV versus the N-methyl analog [4]: more than two log orders more effective; time of treatment to steady-state plasma concentration ([5]; clinical trial): 4-6 weeks; peak plasma concentration ([5]; oral, 100 mg three times daily, listed as ND-DNJ): 6.8 μM and 1.5 μg/ml
CCCCCCCCCCN1C[C@H](O)[C@@H](O)[C@H](O)[C@H]1CO [N-decyl-DNJ] |  |  |  |  |  |  |  |  |  | inhibition at times lower concentrations than N-butyl-DNJ ([2]; HL-60 cell-based assay): 50 times
CCCCCCN1C[C@H](O)[C@@H](O)[C@H](O)[C@H]1CO [N-hexyl derivative of DNJ] |  |  |  |  |  |  |  | 0.2 mg/mL |  | 
CN1C[C@H](O)[C@@H](O)[C@H](O)[C@H]1CO [N-methyl analog] |  |  |  |  |  |  |  |  |  | activity against glycolipid biosynthesis (glycolipid biosynthesis): inactive
CCCCCCCCCN1C[C@H](O)[C@@H](O)[C@H](O)[C@H]1CO [N-nonyl-DNJ, N-nonyl-1,5-dideoxy-1,5-imino-D-glucitol] | 0.4% | 27.1% | 0.3% | 12.6% | 0.4% | 13.5% | 20 to 400 nM |  | 2 to 2.7 µM | inhibition of the Hepatitis B virus (HBV) (Hepatitis B virus (HBV)): effective; radioactivity recovered in the liver and brain, higher than N-butyl-DNJ ([1]; after 90 min, oral gavage, mouse): 10 fold; uptake into the brain versus N-butyl-DNJ ([1]; tests of organ distribution): five times better; cell-associated radioactivity, increase versus N-butyl-DNJ [7]: 3.5-5.0 fold; inhibition of glycolipid biosynthesis, better than N-butyl-DNJ at equivalent concentrations ([2]; HL-60 cells): about four hundred times better; inhibition of glycolipid biosynthesis, better than N-butyl-DNJ at equivalent concentrations [6]: about ten- to about twenty-fold better
